Laboratory results as given in US8163793B2, “Proline derivatives” (Hoffman-La Roche Inc., priority 2009, dated 2012).
Where a name gives a salt, the structure may show the parent alone.

Legend:
Cathepsin S = Cathepsin S (UniProt P25774); experiment: Cathepsin enzyme inhibition assay (fluorogenic peptide substrate Z-Val-Val-Arg-AMC), Cathepsin S; format: biochemical, human and mouse; conditions: enzyme 1 nM, substrate 20 μM, pH 6.5; read-out: CatS IC50
In short: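 Compounds were combined with 1 nM human or mouse enzyme, and substrate then started the reaction. The buffer was potassium phosphate (100 mM, pH 6.5) containing EDTA-Na 5 mM, Triton X-100 0.001% and […] 5 mM.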

Cat L = Cat L (UniProt P07711); experiment: Cathepsin enzyme inhibition assay (fluorogenic peptide substrate Z-Val-Val-Arg-AMC), Cathepsin L; format: biochemical, human and mouse; conditions: enzyme 1 nM, substrate 20 μM, pH 6.5; read-out: CatL IC50
In short: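 Fluorogenic cleavage of Z-Val-Val-Arg-AMC (20 μM) by 1 nM Cat L was monitored at ex 360/em 465 nm for 20 min, the linear phase. The buffer was 100 mM potassium phosphate pH 6.5 with 5 mM EDTA and DTT. IC50 values were derived by standard methods, in μM.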

| Compound | IC50 (Cathepsin S) | IC50 (Cat L) |
| --- | --- | --- |
| CC(C)CS(=O)(=O)[C@@H]1C[C@@H](C(=O)NC2(C#N)CC2)N(C(=O)C2(c3ccc(Cl)cc3)CC2)C1 [Example 236, (2S,4R)-1-[1-(4-Chloro-phenyl)-cyclopropanecarbonyl]-4-(2-methyl-propane-1-sulfonyl)-pyrrolidine-2-carboxylic acid (1-cyano-cyclopropyl)-amide] | 240 nM | ≥ 25000 nM |
| Cc1cc(N2C[C@H](S(=O)(=O)c3ccccc3)C[C@H]2C(=O)NC2(C#N)CC2)n(-c2ccnc(Cl)c2)n1 [Example 262, (2S,4R)-4-Benzenesulfonyl-1-[2-(2-chloro-pyridin-4-yl)-5-methyl-2H-pyrazol-3-yl]-pyrrolidine-2-carboxylic acid (1-cyano-cyclopropyl)-amide] | 4.4 nM | 28700 nM |
| N#CC1(NC(=O)[C@@H]2C[C@@H](S(=O)(=O)c3ccc(F)cc3Cl)CN2C(=O)C2(C(F)(F)F)CC2)CC1 [Example 145, (2S,4R)-4-(2-Chloro-4-fluoro-benzenesulfonyl)-1-(1-trifluoromethyl-cyclopropanecarbonyl)-pyrrolidine-2-carboxylic acid (1-cyano-cyclopropyl)-amide] | 0.6 nM | 11800 nM |
| Cc1cc(N2C[C@H](S(=O)(=O)c3ccc(OCC(F)(F)F)cc3Cl)C[C@H]2C(=O)NC2(C#N)CC2)n(C2CCOCC2)n1 [Example 482, (2S,4R)-4-[2-Chloro-4-(2,2,2-trifluoro-ethoxy)-benzenesulfonyl]-1-[5-methyl-2-(tetrahydro-pyran-4-yl)-2H-pyrazol-3-yl]-pyrrolidine-2-carboxylic acid (1-cyano-cyclopropyl)-amide] | 0.765 nM | 2710 nM |
| N#CC1(NC(=O)[C@@H]2C[C@@H](S(=O)(=O)c3c(Cl)cccc3Cl)CN2)CC1 [Example 16, (2S,4R)-4-(2,6-Dichloro-benzenesulfonyl)-pyrrolidine-2-carboxylic acid (1-cyano-cyclopropyl)-amide Hydrochloride] | 13.2 nM | ≥ 25000 nM |
| CCN1CCN(c2ccc(S(=O)(=O)[C@@H]3C[C@@H](C(=O)NC4(C#N)CC4)N(C=O)C3)c(Cl)c2)CC1 [Example 143, (2S,4R)-4-[2-Chloro-4-(4-ethyl-piperazin-1-yl)-benzenesulfonyl]-1-formyl-pyrrolidine-2-carboxylic acid (1-cyano-cyclopropyl)-amide] | 4.3 nM | 28100 nM |
| CC(Oc1ccc(S(=O)(=O)[C@H]2CN[C@H](C(=O)NC3(C#N)CC3)C2)c(Cl)c1)C(F)(F)F (stereo partly drawn) [Example 129, (2S,4R)-4-[2-Chloro-4-(2,2,2-trifluoro-1-methyl-ethoxy)-benzenesulfonyl]-pyrrolidine-2-carboxylic acid (1-cyano-cyclopropyl)-amide] | 8 nM | 20400 nM |
| N#CC1(NC(=O)[C@@H]2C[C@@H](S(=O)(=O)c3ccc(OCC(F)(F)F)cc3Cl)CN2C(=O)C2(c3ccccc3)CC2)CC1 [Example 240, (2S,4R)-4-[2-Chloro-4-(2,2,2-trifluoro-ethoxy)-benzenesulfonyl]-1-(1-phenyl-cyclopropanecarbonyl)-pyrrolidine-2-carboxylic acid (1-cyano-cyclopropyl)-amide] | 0.09 nM | 590 nM |
| Cn1cc(-c2ccc(S(=O)(=O)[C@@H]3C[C@@H](C(=O)NC4(C#N)CC4)N(C(=O)C4(C)CC4)C3)c(C(F)(F)F)c2)cn1 [Example 249, (2S,4R)-1-(1-Methyl-cyclopropanecarbonyl)-4-[4-(1-methyl-1H-pyrazol-4-yl)-2-trifluoromethyl-benzenesulfonyl]-pyrrolidine-2-carboxylic acid (1-cyano-cyclopropyl)-amide] | 0.255 nM | 25800 nM |
| N#CCNC(=O)[C@@H]1C[C@@H](S(=O)(=O)c2ccccc2C(F)(F)F)CN1C(=O)OC1CCCC1 [Example 72, (2S,4R)-2-(Cyanomethyl-carbamoyl)-4-(2-trifluoromethyl-benzenesulfonyl)-pyrrolidine-1-carboxylic acid Cyclopentyl Ester] | 0.8 nM | ≥ 25000 nM |
| N#CCNC(=O)[C@@H]1C[C@@H](S(=O)(=O)c2ccccc2)CN1C(c1ccccc1)C(F)(F)F (stereo partly drawn) [Example 56, (2S,4R)-4-Benzenesulfonyl-1-(2,2,2-trifluoro-1-phenyl-ethyl)-pyrrolidine-2-carboxylic acid cyanomethyl-amide] | 42.7 nM | ≥ 25000 nM |
| N#CC1(NC(=O)[C@@H]2C[C@@H](S(=O)(=O)c3ccc(Cl)cc3Cl)CN2C(=O)C2(C(F)(F)F)CCC2)CC1 [Example 169, (2S,4R)-4-(2,4-Dichloro-benzenesulfonyl)-1-(1-trifluoromethyl-cyclobutanecarbonyl)-pyrrolidine-2-carboxylic acid (1-cyano-cyclopropyl)-amide] | 0.4 nM | 7580 nM |
| CC(C)(C)OC(=O)N1C[C@H](S(=O)(=O)c2ccccc2Cl)C[C@H]1C(=O)NC1(C#N)CCCCC1 [Example 35, (2S,4R)-4-(2-Chloro-benzenesulfonyl)-2-(1-cyano-cyclohexylcarbamoyl)-pyrrolidine-1-carboxylic acid tert-butyl ester] | 4100 nM | ≥ 25000 nM |
| N#CCNC(=O)[C@@H]1C[C@@H](S(=O)(=O)c2ccccc2C(F)(F)F)CN1c1ccccc1[N+](=O)[O-] [Example 164, (2S,4R)-1-(2-Nitro-phenyl)-4-(2-trifluoromethyl-benzenesulfonyl)-pyrrolidine-2-carboxylic acid cyanomethyl-amide] | 0.8 nM | ≥ 25000 nM |
| N#CC1(NC(=O)[C@@H]2C[C@@H](S(=O)(=O)c3ccc(OCC(F)(F)F)cc3Cl)CN2C(=O)C2(c3ccc4c(c3)OCO4)CC2)CC1 [Example 384, (2S,4R)-1-(1-Benzo[1,3]dioxol-5-yl-cyclopropanecarbonyl)-4-[2-chloro-4-(2,2,2-trifluoro-ethoxy)-benzenesulfonyl]-pyrrolidine-2-carboxylic acid (1-cyano-cyclopropyl)-amide] | 0.05 nM | 100 nM |
| COCC(=O)N1C[C@H](S(=O)(=O)c2ccccc2Cl)C[C@H]1C(=O)NCC#N [Example 62, (2S,4R)-4-(2-Chloro-benzenesulfonyl)-1-(2-methoxy-acetyl)-pyrrolidine-2-carboxylic acid cyanomethyl-amide] | 1.2 nM | 21000 nM |
| CCOC(=O)N1C[C@H](S(=O)(=O)c2ccccc2Cl)C[C@H]1C(=O)NC1(C#N)CC1 [Example 96, (2S,4R)-4-(2-Chloro-benzenesulfonyl)-2-(1-cyano-cyclopropylcarbamoyl)-pyrrolidine-1-carboxylic acid ethyl ester] | 2.6 nM | 31500 nM |
| Cc1cc(N2C[C@H](S(=O)(=O)c3ccc(F)cc3C(F)(F)F)C[C@H]2C(=O)NC2(C#N)CC2)n(-c2ccc(C(F)(F)F)cc2)n1 [Example 267, (2S,4R)-4-(4-Fluoro-2-trifluoromethyl-benzenesulfonyl)-1-[5-methyl-2-(4-trifluoromethyl-phenyl)-2H-pyrazol-3-yl]-pyrrolidine-2-carboxylic acid (1-cyano-cyclopropyl)-amide] | 2.3 nM | 7810 nM |
| N#CCNC(=O)[C@@H]1C[C@@H](S(=O)(=O)c2ccccc2Cl)CN1C1CCOCC1 [Example 64, (2S,4R)-4-(2-Chloro-benzenesulfonyl)-1-(tetrahydro-pyran-4-yl)-pyrrolidine-2-carboxylic acid cyanomethyl-amide] | 109 nM | ≥ 25000 nM |
| CC(C)(C)OC(=O)N1C[C@H](S(=O)(=O)c2ccc(F)cc2Cl)C[C@H]1C(=O)NC1(C#N)CC1 [Example 124, (2S,4R)-4-(2-Chloro-4-fluoro-benzenesulfonyl)-2-(1-cyano-cyclopropylcarbamoyl)-pyrrolidine-1-carboxylic acid tert.-butyl ester] | 12.5 nM | ≥ 25000 nM |
| CC(C)(C#N)NC(=O)[C@@H]1C[C@@H](S(=O)(=O)c2ccccc2Cl)CN1C(=O)OC(C)(C)C [Example 33, (2S,4R)-4-(2-Chloro-benzenesulfonyl)-2-[(cyano-dimethyl-methyl)-carbamoyl]-pyrrolidine-1-carboxylic acid tert-butyl ester] | 675 nM | ≥ 25000 nM |
| C[C@H](Oc1ccc(S(=O)(=O)[C@@H]2C[C@H](C(=O)NC3(C#N)CC3)N(C(=O)C3(C(F)(F)F)CC3)C2)c(Cl)c1)C(F)(F)F [Example 184, (2R,4R)-4-[2-Chloro-4-((S)-2,2,2-trifluoro-1-methyl-ethoxy)-benzenesulfonyl]-1-(1-trifluoromethyl-cyclopropanecarbonyl)-pyrrolidine-2-carboxylic acid (1-cyano-cyclopropyl)-amide] | 32 nM | ≥ 25000 nM |
| CC(C)C(=O)N1C[C@H](S(=O)(=O)c2ccc(OCC(F)(F)F)cc2Cl)C[C@H]1C(=O)NC1(C#N)CC1 [Example 179, (2S,4R)-4-[2-Chloro-4-(2,2,2-trifluoro-ethoxy)-benzenesulfonyl]-1-isobutyryl-pyrrolidine-2-carboxylic acid (1-cyano-cyclopropyl)-amide] | 0.42 nM | 17600 nM |
| CC(=O)N1C[C@H](S(=O)(=O)c2ccc(-n3cccn3)cc2Cl)C[C@H]1C(=O)NC1(C#N)CC1 [Example 131, (2S,4R)-1-Acetyl-4-(2-chloro-4-pyrazol-1-yl-benzenesulfonyl)-pyrrolidine-2-carboxylic acid (1-cyano-cyclopropyl)-amide formiate] | 0.9 nM | 33900 nM |
| Cc1cc(N2C[C@H](S(=O)(=O)CC3CC3)C[C@H]2C(=O)NC2(C#N)CC2)n(Cc2ccccc2)n1 [Example 445, (2S,4R)-1-(2-Benzyl-5-methyl-2H-pyrazol-3-yl)-4-cyclopropylmethanesulfonyl-pyrrolidine-2-carboxylic acid (1-cyano-cyclopropyl)-amide] | 725 nM | ≥ 25000 nM |
